Experiments:
Assay in all cases: two-electrode voltage clamp, Xenopus oocytes
Type in all cases: cell-based
Conditions in all cases: read-out: EC 50(μM or nM)*
homomeric Dα5 nAChR = target: T1, homomeric Dα5 nAChR (Drosophila melanogaster, UniProt Q8T7V5)
T1 construct: gene nAChRalpha5; full-length, 807 residues, unusually large N-terminal domain; pGEMHE cRNA in Xenopus oocytes with chaperone C. elegans RIC-3; homopentamer
T1 sequence (Q8T7V5 1-807): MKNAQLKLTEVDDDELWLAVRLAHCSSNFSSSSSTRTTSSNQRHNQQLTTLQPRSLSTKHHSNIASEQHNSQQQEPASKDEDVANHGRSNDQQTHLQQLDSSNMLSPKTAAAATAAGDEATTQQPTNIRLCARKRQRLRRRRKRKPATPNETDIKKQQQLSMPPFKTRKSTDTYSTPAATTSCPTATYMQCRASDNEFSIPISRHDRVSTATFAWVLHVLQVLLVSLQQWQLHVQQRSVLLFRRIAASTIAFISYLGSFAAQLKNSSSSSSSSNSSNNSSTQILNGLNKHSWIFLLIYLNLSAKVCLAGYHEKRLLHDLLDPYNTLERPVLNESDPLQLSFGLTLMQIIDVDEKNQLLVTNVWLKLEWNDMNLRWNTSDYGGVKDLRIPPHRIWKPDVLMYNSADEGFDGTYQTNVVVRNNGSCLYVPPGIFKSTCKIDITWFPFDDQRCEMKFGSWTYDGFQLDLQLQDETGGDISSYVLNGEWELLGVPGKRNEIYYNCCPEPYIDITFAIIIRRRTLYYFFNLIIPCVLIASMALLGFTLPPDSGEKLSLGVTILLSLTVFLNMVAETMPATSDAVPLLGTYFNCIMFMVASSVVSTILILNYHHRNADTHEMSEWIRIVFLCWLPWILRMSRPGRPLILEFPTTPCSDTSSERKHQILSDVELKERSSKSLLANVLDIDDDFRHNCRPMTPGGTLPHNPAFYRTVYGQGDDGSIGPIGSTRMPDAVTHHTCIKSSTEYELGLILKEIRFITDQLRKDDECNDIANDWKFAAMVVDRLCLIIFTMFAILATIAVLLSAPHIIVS
Source text: two-electrode voltage clamp, Xenopus oocytes on homomeric Dα5 nAChR

homomeric Dα7 nAChR = target: T2, homomeric Dα7 nAChR (Drosophila melanogaster, UniProt Q9VWI9)
T2 construct: gene nAChRalpha7; intact subunit; pGEMHE cRNA in Xenopus oocytes with chaperone C. elegans RIC-3; homopentamer
T2 sequence (Q9VWI9 59-560): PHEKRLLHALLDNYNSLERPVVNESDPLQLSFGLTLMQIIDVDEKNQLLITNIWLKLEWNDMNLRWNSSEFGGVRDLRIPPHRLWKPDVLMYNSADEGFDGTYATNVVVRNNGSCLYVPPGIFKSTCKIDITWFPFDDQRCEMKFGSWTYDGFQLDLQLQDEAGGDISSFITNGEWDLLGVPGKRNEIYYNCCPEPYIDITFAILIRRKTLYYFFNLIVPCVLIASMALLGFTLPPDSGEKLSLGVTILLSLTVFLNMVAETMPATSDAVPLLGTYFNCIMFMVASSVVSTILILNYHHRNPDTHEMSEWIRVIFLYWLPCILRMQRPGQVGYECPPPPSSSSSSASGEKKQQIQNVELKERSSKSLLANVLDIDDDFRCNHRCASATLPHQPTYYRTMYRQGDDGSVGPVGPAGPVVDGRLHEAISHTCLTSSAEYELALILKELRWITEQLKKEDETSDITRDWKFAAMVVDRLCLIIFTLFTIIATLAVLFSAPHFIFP
Source text: two-electrode voltage clamp, Xenopus oocytes on homomeric Dα7 nAChR

Dα5 + Dα6 nAChR = target: T3, Dα5 + Dα6 nAChR (Drosophila melanogaster, UniProt Q8T7V5+Q9VL79)
T3 construct: gene nAChRalpha5; intact subunits co-injected as cRNA in Xenopus oocytes with C. elegans RIC-3; pairwise heteromer not proven (may be homomeric Dα5); stoichiometry unknown
T3 sequence (Q8T7V5 1-807): T1 sequence (Q8T7V5 1-807)
T3 sequence (Q9VL79 28-494): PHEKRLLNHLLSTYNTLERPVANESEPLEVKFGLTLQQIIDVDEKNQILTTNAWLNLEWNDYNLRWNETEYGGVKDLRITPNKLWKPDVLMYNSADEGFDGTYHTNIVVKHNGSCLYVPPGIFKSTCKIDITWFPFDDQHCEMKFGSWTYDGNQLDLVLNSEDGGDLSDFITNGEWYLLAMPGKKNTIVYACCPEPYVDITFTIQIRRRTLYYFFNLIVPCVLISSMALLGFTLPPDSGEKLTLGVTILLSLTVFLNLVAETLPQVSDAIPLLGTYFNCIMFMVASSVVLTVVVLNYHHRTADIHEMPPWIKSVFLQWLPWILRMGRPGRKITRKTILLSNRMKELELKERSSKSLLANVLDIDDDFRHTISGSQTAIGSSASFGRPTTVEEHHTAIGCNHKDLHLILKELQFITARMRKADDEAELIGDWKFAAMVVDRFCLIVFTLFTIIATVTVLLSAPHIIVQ
Source text: two-electrode voltage clamp, Xenopus oocytes on Dα5 + Dα6 nAChR

Dα5 + Dα7 nAChR = target: T4, Dα5 + Dα7 nAChR (Drosophila melanogaster, UniProt Q8T7V5+Q9VWI9)
T4 construct: gene nAChRalpha5; intact subunits co-injected as cRNA in Xenopus oocytes with C. elegans RIC-3; pairwise heteromer not proven (may be homomers); stoichiometry unknown
T4 sequence (Q8T7V5 1-807): T1 sequence (Q8T7V5 1-807)
T4 sequence (Q9VWI9 59-560): T2 sequence (Q9VWI9 59-560)
Source text: two-electrode voltage clamp, Xenopus oocytes on Dα5 + Dα7 nAChR

- EC50 (homomeric Dα5 nAChR): 8.8 ± 2.5 µM
- EC50 (homomeric Dα7 nAChR): 6.7 ± 1.7 µM
- EC50 (Dα5 + Dα6 nAChR): 8.6 ± 2.4 µM
- EC50 (Dα5 + Dα7 nAChR): 1.6 ± 0.3 µM
Structure (SMILES): CC(=O)OCC[N+](C)(C)C [acetylcholine]

From article PMC3444433, “The Drosophila nicotinic acetylcholine receptor subunits Dα5 and Dα7 form functional homomeric and heteromeric ion channels” (BMC Neuroscience, 2012)
